Experimental findings from ChEMBL document CHEMBL3739323, “Design, synthesis, and biological evaluation of novel quinazolinyl-diaryl urea derivatives as potential anticancer agents” (Eur J Med Chem, 2016) are described below.

The subject of series [1] is A549. The series is described as follows: Induction of apoptosis in human A549 cells assessed as early apoptotic cells at 10 uM after 6 hrs by Annexin-V-FITC/Propidium iodide staining based flow cytometric analysis (reference value: 3.83 +/- 0.49%). The class given is functional. Background: In flow cytometry, cells or beads pass a laser one at a time.
For series [2], the system named is A549. The series is described as follows: Induction of apoptosis in human A549 cells assessed as late apoptotic cells at 5 uM after 6 hrs by Annexin-V-FITC/Propidium iodide staining based flow cytometric analysis (reference value: 0.41 +/- 0.19%). It is filed as functional.
In series [3] the test system is A549. The series is described as follows: Induction of apoptosis in human A549 cells assessed as increase in ROS production at 20 uM after 6 hrs by DCF staining based luminescence spectrometric analysis relative to control. The class given is functional.
The test system of series [4] is A549. Put plainly: Induction of apoptosis in human A549 cells assessed as necrotic cells at 5 uM after 6 hrs by Annexin-V-FITC/Propidium iodide staining based flow cytometric analysis (reference value: 0.28 +/- 0.09%). It is filed as functional.
Series [5] relates to A549. The series is described as follows: Induction of apoptosis in human A549 cells assessed as late apoptotic cells at 5 uM after 48 hrs by Annexin-V/Propidium iodide dual staining based flow cytometric analysis (reference value: 1.44 +/- 0.43%). The class given is functional.
Series [6] can be described thus: Antiproliferative activity against human MGC803 cells by MTT assay. The class given is functional, cell-based. The following applies: MGC-803. For orientation: Tetrazolium dyes change colour on reduction, which living cells bring about.
The test system of series [7] is A549. The series is described as follows: Cell cycle arrest in human A549 cells assessed as accumulation at S phase at 10 uM by propidium iodide staining based flow cytometric analysis (reference value: 23.41 +/- 2.19%). The class given is functional.
Series [8] concerns A549. Put plainly: Induction of apoptosis in human A549 cells assessed as viable cells at 10 uM after 48 hrs by Annexin-V-FITC/Propidium iodide staining based flow cytometric analysis (reference value: 92.46 +/- 4.23%). The class given is functional. The following applies: A549, 48 h, read-out: Activity.
Series [9] has as its system A549. The series is described as follows: Induction of apoptosis in human A549 cells assessed as necrotic cells at 20 uM after 48 hrs by Annexin-V/Propidium iodide dual staining based flow cytometric analysis (reference value: 2.57 +/- […]%). It is filed as functional.
The subject of series [10] is A549. Put plainly: Induction of apoptosis in human A549 cells assessed as upregulation of caspase-8 expression after 48 hrs by Western blot analysis. The class given is functional, cell-based.
Series [11] concerns A549. Put plainly: Induction of apoptosis in human A549 cells assessed as upregulation of caspase-3 expression after 48 hrs by Western blot analysis. The class given is functional, cell-based. (A western blot detects proteins with antibodies after separation by electrophoresis.)
Series [12] deals with A549. Put plainly: Induction of apoptosis in human A549 cells assessed as necrotic cells at 5 uM after 48 hrs by Annexin-V/Propidium iodide dual staining based flow cytometric analysis (reference value: 2.57 +/- 0.39%). It is filed as functional.
Series [13] deals with A549. Put plainly: Cell cycle arrest in human A549 cells assessed as accumulation at G2/M phase at 20 uM by propidium iodide staining based flow cytometric analysis (reference value: 12.77 +/- 1.55%). The class given is functional.
For series [14], the system named is A549. Put plainly: Effect on total Rb level in human A549 cells after 48 hrs by Western blot analysis. It is filed as ADME, cell-based. The following applies: a549, 48 h.

As usually defined, the IC50 is the concentration that gives 50% inhibition. Higher therefore signals a need for much substance. For `COc1cc2ncnc(NCc3cccc(NC(=O)Nc4ccc(C(C)(C)C)cc4)c3)c2cc1OC`, the Activity in the series on A549 [1] is recorded as 12.2%; in the series on A549 [2], 5.97%; with A549 [3], 54.3%; in the series with A549 [4] it was 0.44%; with A549 [5] it was 7.84%; in the series on A549 [7], 6.91%. Moreover, the Activity is 42.2% in the series on A549 [9]; “Dose-dependent effect” in the series on A549 [10]; “Dose-dependent effect” in the series with A549 [11]; 14.2% in the series with A549 [12]; 1.07% with A549 [13]; “Non-toxic” in the series with A549 [14]. Further, half-maximal inhibition in series [6] (IC50) was put at 6.79 µM. In the series on A549 [8], the viability at 10 µM was determined as 67.5%.
